Molecular target: Isoform Bcl-X(L) of Bcl-2-like protein 1 (Bcl-xL) (Homo sapiens, UniProt Q07817)
Experiment: Bim-Bcl-XL interaction inhibitors, hit retest, confirmation, biochemical, dose response, multiplexed, HTS hits (AID 2084)
Details: inactive by the depositor's call

Chain of Isoform Bcl-X(L) of Bcl-2-like protein 1 (Bcl-xL) (Q07817 whole entry G70A, canonical isoform): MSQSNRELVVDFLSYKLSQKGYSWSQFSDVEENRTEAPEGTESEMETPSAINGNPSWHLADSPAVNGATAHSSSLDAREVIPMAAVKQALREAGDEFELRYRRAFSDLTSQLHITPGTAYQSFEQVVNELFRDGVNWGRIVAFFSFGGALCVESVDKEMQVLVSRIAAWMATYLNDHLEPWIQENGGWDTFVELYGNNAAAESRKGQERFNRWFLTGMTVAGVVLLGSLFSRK

## O=c1[nH]c(O)c(Cc2ccc(-c3cc(Cl)ccc3[N+](=O)[O-])o2)c(=O)[nH]1
  EC50: 26.4 µM

## CNC1CCC(Br)CC(C(=O)C=Cc2cccc(OC)c2OC)C1=O (stereo not given) [4-bromo-2-[(E)-3-(2,3-dimethoxyphenyl)-1-oxoprop-2-enyl]-7-(methylamino)-1-cycloheptanone]
  EC50: 45.5 µM

## Cc1ccc(-c2nc3c(c(=O)[nH]c(=O)n3Cc3ccccc3)n2C)o1 [7-methyl-8-(5-methyl-2-furanyl)-3-(phenylmethyl)purine-2,6-dione]
  EC50: 43.5 µM

## Clc1nc(NCc2cccnc2)nc(N2CCOCC2)n1 [MLS000121154]
  EC50: 15.1 µM

## COc1ccc(CCNC(=O)c2ccc3nc(-c4ccco4)c(-c4ccco4)nc3c2)cc1OC [N-[2-(3,4-dimethoxyphenyl)ethyl]-2,3-di-2-furylquinoxaline-6-carboxamide]
  EC50: 18.4 µM
